Test results from publication PMC8589421, “Impact of Type II LRRK2 inhibitors on signaling and mitophagy” (Biochemical Journal, 2021).
Like-named read-outs stand apart in the source and are kept apart here.

Experiments:
Flag-LRRK2[G2019S] = molecular target: T1, Flag-LRRK2[G2019S] (Homo sapiens, UniProt Q5S007, G2019S); test: IC50 LRRK2 Nictide assay, G2019S; assay type: biochemical; settings: IC50 LRRK2 G2019S (100 µM ATP), Nictide peptide substrate, value ± SD
T1 construct: towards full length wild type and G2019S pathogenic LRRK2 mutant in a biochemical assay; Flag (N); purchased ThermoFisher Scientific A15201

[1] = test system: Rab10 pThr73, LRRK2 [R1441C]; test: Rab10 Thr73 phospho-immunoblot in LRRK2[R1441C] knock-in MEFs; assay type: cell-based, mouse; settings: LRRK2[R1441C] knock-in MEFs, 2 h, read-out: LRRK2 [R1441C] Rab10 pThr73 IC50
Procedure: (§1) Wild-type and homozygous LRRK2 [R1441C] (Jax, stock number: 009346), LRRK2[G2019S] Taconic, (model 13940) and LRRK2 [A2016T] (Jax, stock number: 021828)[7] knock-in MEF cells were isolated from littermate-matched mouse embryos on a C57BL/6J background at day E12.5 as described previously. MEFs were grown in Dulbecco's modified Eagle medium (DMEM GIBCO, #11960-085) containing 10% (by vol) fetal bovine serum (FBS), 2 mM L-glutamine, 100 U/ml penicillin, and […] streptomycin supplemented with non-essential amino acids and 1 mM sodium pyruvate. Human embryonic kidney 293 (HEK293) (#ATCC CRL-1573) and HeLa (#ATCC CCL-2) cells were purchased from American Tissue Culture Collection (ATCC) and cultured in DMEM containing 10% (by vol) FBS, 2 mM L-glutamine, 100 U/ml penicillin, and […] streptomycin. All cells were grown at 37°C, 5% (by vol) CO2 in a humidified atmosphere and regularly tested for mycoplasma contamination.
(§2) Inhibitors were dissolved in dimethyl sulfoxide (DMSO) (Sigma, #D2650). The inhibitors were diluted 1000× into cell medium. The equivalent volume of DMSO was added to the minus inhibitor controls. Experiments were performed in six-well plates, 10 cm dishes or 15 cm dishes depending on the amount of cell extract required.
Cells were lysed in an ice-cold lysis buffer containing 50 mM Tris–HCl, pH 7.4, 1% (by vol) Triton X-100, 10% (by vol) glycerol, 150 mM NaCl, 1 mM sodium orthovanadate, 50 mM NaF, 10 mM 2-glycerophosphate, 5 mM sodium pyrophosphate, 1 µg/ml microcystin-LR, and cOmplete EDTA-free protease inhibitor cocktail (Roche, #11836170001). Lysates were incubated on ice for 30 min and clarified by centrifugation at 20 800×g at 4°C for 20 min. Supernatants were quantified by Bradford assay (Bio-Rad Protein Assay Dye Reagent Concentrate #5000006) and samples prepared in 1× lithium dodecyl sulfate sample buffer final concentration (NuPage LDS Sample buffer 4× Invitrogen, #NP0008). When not deployed immediately, lysates were snap-frozen in liquid nitrogen and stored at −80°C until use. […]

[2] = test system: phosphorylation of Rab12 (Ser105); test: Rab12 phospho-immunoblot in wild-type MEFs; assay type: cell-based, mouse
Procedure: as §1, §2
Cells were lysed in an ice-cold lysis buffer containing 50 mM Tris–HCl, pH 7.4, 1% (by vol) Triton X-100, 10% (by vol) glycerol, 150 mM NaCl, 1 mM sodium orthovanadate, 50 mM NaF, 10 mM 2-glycerophosphate, 5 mM sodium pyrophosphate, 1 µg/ml microcystin-LR, and cOmplete EDTA-free protease inhibitor cocktail (Roche, #11836170001). Lysates were incubated on ice for 30 min and clarified by centrifugation at 20 800×g at 4°C for 20 min. Supernatants were quantified by Bradford assay (Bio-Rad Protein Assay Dye Reagent Concentrate #5000006) and samples prepared in 1× lithium dodecyl sulfate sample buffer final concentration (NuPage LDS Sample buffer 4× Invitrogen, #NP0008). When not deployed immediately, lysates were snap-frozen in liquid nitrogen and stored at −80°C until use.
Cell extracts were mixed with a quarter of a volume of NuPage LDS Sample buffer 4× Invitrogen and heated at 95°C for 5 min. […] At the end of electrophoresis, proteins were electrophoretically transferred onto the nitrocellulose membrane (GE Healthcare, Amersham Protran Supported 0.45 µm NC) at 100 V for 90 min on ice in the transfer buffer (48 mM Tris–HCl and 39 mM glycine supplemented with 20% methanol). Transferred membrane was blocked with 5% (w/v) skim milk powder dissolved in TBS-T [20 mM Tris–HCl, pH 7.5, 150 mM NaCl and 0.1% (v/v) Tween 20] at room temperature for 1 h. […]

[3] = test system: mouse embryonic fibroblast cells (MEFs); test: Cell morphology and attachment of MEFs; assay type: cell-based

T1 sequence (Q5S007 whole entry G2019S): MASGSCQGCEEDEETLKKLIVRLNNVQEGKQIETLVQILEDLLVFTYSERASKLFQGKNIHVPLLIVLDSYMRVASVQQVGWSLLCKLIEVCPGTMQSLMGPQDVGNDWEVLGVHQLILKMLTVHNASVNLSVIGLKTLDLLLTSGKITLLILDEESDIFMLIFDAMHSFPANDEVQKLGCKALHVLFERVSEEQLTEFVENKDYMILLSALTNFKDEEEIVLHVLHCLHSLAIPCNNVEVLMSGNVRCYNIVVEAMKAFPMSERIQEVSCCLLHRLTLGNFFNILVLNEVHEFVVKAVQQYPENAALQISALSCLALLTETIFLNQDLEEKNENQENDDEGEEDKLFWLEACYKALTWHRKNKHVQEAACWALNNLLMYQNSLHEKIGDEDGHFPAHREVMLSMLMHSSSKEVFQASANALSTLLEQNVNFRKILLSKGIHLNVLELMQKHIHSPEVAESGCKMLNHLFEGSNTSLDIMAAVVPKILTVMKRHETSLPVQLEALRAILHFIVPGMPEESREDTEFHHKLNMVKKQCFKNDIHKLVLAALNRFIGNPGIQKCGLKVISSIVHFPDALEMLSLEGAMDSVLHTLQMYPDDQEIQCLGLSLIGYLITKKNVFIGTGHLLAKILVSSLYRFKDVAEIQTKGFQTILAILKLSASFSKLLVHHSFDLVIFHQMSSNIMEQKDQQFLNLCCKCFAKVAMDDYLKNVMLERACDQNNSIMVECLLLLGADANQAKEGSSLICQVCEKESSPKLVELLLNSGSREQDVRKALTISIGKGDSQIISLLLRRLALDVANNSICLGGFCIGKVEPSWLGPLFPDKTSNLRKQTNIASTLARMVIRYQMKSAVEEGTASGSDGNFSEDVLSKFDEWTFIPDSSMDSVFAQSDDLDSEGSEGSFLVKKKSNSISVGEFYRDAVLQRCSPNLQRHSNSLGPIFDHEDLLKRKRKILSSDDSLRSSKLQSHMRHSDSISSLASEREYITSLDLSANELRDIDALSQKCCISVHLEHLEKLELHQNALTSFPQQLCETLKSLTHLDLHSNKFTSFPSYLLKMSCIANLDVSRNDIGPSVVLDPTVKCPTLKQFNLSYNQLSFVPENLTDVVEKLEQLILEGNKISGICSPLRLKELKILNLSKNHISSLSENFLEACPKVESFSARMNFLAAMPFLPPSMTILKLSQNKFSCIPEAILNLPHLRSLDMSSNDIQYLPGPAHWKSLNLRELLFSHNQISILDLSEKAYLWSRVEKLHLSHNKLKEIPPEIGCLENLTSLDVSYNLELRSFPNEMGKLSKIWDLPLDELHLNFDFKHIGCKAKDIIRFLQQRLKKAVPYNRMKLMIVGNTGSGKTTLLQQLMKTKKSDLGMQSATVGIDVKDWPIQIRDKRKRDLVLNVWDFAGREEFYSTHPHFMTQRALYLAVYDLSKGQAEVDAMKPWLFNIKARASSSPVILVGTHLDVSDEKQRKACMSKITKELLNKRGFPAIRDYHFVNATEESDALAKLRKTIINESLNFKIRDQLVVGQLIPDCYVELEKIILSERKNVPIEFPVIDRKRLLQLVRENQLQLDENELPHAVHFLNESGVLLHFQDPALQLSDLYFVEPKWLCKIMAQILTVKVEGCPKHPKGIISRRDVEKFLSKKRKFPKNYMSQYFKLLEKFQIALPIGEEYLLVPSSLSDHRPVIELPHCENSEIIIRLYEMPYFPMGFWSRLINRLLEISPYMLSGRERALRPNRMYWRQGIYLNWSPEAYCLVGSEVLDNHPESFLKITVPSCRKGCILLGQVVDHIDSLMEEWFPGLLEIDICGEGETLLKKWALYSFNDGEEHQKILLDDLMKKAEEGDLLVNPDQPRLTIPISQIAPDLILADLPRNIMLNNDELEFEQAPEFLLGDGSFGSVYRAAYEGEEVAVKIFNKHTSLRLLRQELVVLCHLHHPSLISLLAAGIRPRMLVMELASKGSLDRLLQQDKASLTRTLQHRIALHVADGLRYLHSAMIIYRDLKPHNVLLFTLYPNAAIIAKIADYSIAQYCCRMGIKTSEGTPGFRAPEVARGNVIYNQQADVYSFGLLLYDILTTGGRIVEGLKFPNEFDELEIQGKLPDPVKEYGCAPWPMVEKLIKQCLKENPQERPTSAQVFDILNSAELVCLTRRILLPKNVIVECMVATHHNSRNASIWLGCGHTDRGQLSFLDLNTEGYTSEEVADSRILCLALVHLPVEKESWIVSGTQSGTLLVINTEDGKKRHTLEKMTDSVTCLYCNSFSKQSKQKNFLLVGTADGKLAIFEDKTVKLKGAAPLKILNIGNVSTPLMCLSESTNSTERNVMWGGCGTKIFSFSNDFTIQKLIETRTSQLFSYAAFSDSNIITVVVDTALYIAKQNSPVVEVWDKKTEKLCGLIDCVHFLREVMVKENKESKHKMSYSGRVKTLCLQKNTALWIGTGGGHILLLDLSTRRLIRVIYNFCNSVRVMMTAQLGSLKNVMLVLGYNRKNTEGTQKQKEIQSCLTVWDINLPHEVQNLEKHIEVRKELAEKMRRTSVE

## Cc1ccc(C(=O)Nc2ccc(CN3CCN(C)CC3)c(C(F)(F)F)c2)cc1C#Cc1cnc2[nH]ncc2c1 [GZD-824]
Flag-LRRK2[G2019S]
  IC50: 80 nM
[1]
  IC50: 262 nM
[1]; Mus musculus
  IC50: 262 nM
[2]; 1 μM, 2 h
  Rab12 phosphorylation level after treatment: almost background levels
[2]; 1 μM, 24 h
  Rab12 phosphorylation over 24 h time course: remained suppressed
[2]; 1 μM, Figure 2C
  time to 50% reduction of Rab12 phosphorylation: ~10 min
[2]; Mus musculus, 2 h, Figure 2A, read-out: IC50 inhibition of Rab12 phosphorylation
  IC50: ~300 nM
[3]
  concentration that impacted cell morphology and attachment: ≥ 10 μM
